# Measured values reported in US11105747B2, “Spectroscopic methods to detect and characterize microorganisms” (Spectral Platforms, Inc., priority 2017, dated 2021).
# Tested on: unknown pathogen
# Assay: Antimicrobial susceptibility (MIC/MBC) from Raman slope and time to cloudiness versus antimicrobial concentration
# Format: cell-based
# Method: To measure the minimum inhibitory concentration, or to otherwise characterize the antimicrobial susceptibility of any unknown pathogen to a candidate antimicrobial: • (a) Incubate the unknown pathogen for about 3 hours in a rich media. This time period should suffice to increase the concentration of the causative pathogen by about >100×. […] Incubate this mixture for another 20 minutes, which allows for sufficient time for the 10 CFUs to interact with the candidate antimicrobial. • (d) Add the 7 mixtures to the test vials, and test. The number of free radicals present in the mixed sample is a function of the concentration of the antimicrobial, and so the final slope can be plotted against antimicrobial concentration to develop estimates for the MIC. This is illustrated in FIGS. 32A and 32B.
# FIG. 32A depicts the measured slope as a function of antimicrobial agent (vancomycin) concentration. FIG. 32B depicts the time taken for the tested samples to become cloudy. Above 2 μg/m L, the samples remain clear for very long incubation periods (>96 hours). Thus, the Minimum Bactericidal Concentration MBC is about 2 μg/mL. Above 0.25 mg/mL, the time to cloudiness increases slightly. […] As illustrated in FIGS. 32A and 32B, the MIC corresponds to the concentration at which the signal decreases slightly. Further, the MBC (Minimum Bactericidal Concentration) corresponds to the concentration at which the signal increases again.
structure (smiles),measurement,setting,value
CN[C@H](CC(C)C)C(=O)N[C@H]1C(=O)N[C@@H](CC(N)=O)C(=O)N[C@H]2C(=O)N[C@H]3C(=O)N[C@H](C(=O)N[C@H](C(=O)O)c4cc(O)cc(O)c4-c4cc3ccc4O)[C@H](O)c3ccc(c(Cl)c3)Oc3cc2cc(c3O[C@@H]2O[C@H](CO)[C@@H](O)[C@H](O)[C@H]2O[C@H]2C[C@](C)(N)[C@H](O)[C@H](C)O2)Oc2ccc(cc2Cl)[C@H]1O [vancomycin],time taken for the tested samples to become cloudy (samples remain clear),above 2 μg/mL vancomycin,> 96 h
same,MBC,"concentration above which samples remain clear, signal increases again, read-out: Minimum Bactericidal Concentration MBC",~2 µg/mL
same,MIC,read-out: MIC (minimum inhibitory concentration),~250 µg/mL
